How the values were obtained:
[1] = target: T1, activated plasma carboxypeptidase B (Homo sapiens, UniProt Q96IY4); test: Assay for activated plasma carboxypeptidase B activity (hippuryl-Arg hydrolysis, colorimetric); assay type: biochemical; conditions: used as positive standard; hippuryl-Arg final 1 mM
T1 sequence (Q96IY4 115-423): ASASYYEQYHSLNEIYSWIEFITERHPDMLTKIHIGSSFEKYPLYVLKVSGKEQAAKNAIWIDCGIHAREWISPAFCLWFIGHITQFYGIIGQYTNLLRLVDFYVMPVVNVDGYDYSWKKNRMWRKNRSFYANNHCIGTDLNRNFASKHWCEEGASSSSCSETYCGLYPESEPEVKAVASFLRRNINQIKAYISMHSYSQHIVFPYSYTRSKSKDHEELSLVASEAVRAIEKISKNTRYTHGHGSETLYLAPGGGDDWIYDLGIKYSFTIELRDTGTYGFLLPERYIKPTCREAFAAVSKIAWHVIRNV
Method: The compounds of the invention were tested in an in vitro assay according to the method described in Hendriks et al., “Colorimetric assay for carboxypeptidase N in serum”, Clinica Chimica Acta (1986), Vol. 157, pp. 103-108 and Zhao et al., “Identification and characterization of two thrombin-activatable fibrinolysis inhibitor isoforms”, Thromb. Haemost. (1998), Vol. 80, pp. 949-955.
Activation of Plasma Carboxypeptidase B:
The following reagents were mixed together at a total volume of 200 μL:
The above mixture was incubated for 15 minutes at ambient temperature. The activation process was stopped by the addition of 2 μl of PPACK, D-Phe-Pro-Arg chloromethylketone (100 μM, final 1.0 μM). The mixture was then diluted 1:36 with the activation buffer containing 0.1% BSA. The resulting diluted mixture was kept on ice. […] The resulting sample mixture was incubated for 2 minutes at ambient temperature. To the sample mixture was added 12 μL of 5 mM hippuryl-Arg (final 1 mM (=Km)). The resulting sample mixture was incubated at ambient temperature for 30 minutes. At the end of the reaction, the product, hippuric acid, in the sample mixture was converted to a chromogen by adding the following to the mixture: • 80 μL of 0.2 M sodium phosphate buffer, pH 8.3 • 60 μL of 3% cyanuric chloride in dioxane (w/v). […] Optical density of the samples was measured at 382 nm.

[2] = target: T2, plasma carboxypeptidase B (Homo sapiens, UniProt Q96IY4); conditions: t-PA-induced lysis; cited from earlier work
T2 sequence (Q96IY4 115-423): T1 sequence (Q96IY4 115-423)

IC50 [1]: 35 µM
Compound: NC(N)=NCCSC(CC(=O)O)C(=O)O (centres unmarked) [GEMSA, guanidinoethyl-mercaptosuccinic acid]
effect on the inhibitory effect of plasma carboxypeptidase B on clot lysis [2]: blocked the inhibitory effect of plasma carboxypeptidase B on clot lysis
